The results in this text go back to patent publication EP1421935A1 (Casini, Angela, priority 2002, dated 2004).

One may read the Ki as the dissociation constant of the complex between target and ligand, obtained from inhibition or displacement.

Data set [1] in a line: transcorneal penetration of drugs (in vitro corneal permeability). The settings on record: rate constant of transfer across excised rabbit cornea, pH 7.4.
Experimental: The determination of transcorneal penetration of drugs is performed as follows. […] Excised rabbit corneas with either intact or denuded epithelium are used in these experiments. The pH is 7.4 and exposed area is 1.2 cm^2. Concentrations of drug of 40 - 2000 µM are placed in the epithelial chamber and samples of fluid are collected from the endothelial chamber at different intervals, up to 4 hr.
The target of another data set is hCA I (Homo sapiens, UniProt P00915). Put plainly: CA inhibition, esterase method (4-nitrophenylacetate hydrolysis).
hCA I, sequence (P00915 whole entry): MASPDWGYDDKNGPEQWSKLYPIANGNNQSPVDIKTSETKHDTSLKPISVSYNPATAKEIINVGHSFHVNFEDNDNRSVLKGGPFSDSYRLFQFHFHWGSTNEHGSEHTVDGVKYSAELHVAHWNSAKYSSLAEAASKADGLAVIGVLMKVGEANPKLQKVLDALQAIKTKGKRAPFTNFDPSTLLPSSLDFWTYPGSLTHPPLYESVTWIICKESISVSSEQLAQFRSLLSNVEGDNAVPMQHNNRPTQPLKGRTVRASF
The target of the next data set is T1, bCA IV (Bos taurus, UniProt Q95323).
T1 sequence (Q95323 19-284): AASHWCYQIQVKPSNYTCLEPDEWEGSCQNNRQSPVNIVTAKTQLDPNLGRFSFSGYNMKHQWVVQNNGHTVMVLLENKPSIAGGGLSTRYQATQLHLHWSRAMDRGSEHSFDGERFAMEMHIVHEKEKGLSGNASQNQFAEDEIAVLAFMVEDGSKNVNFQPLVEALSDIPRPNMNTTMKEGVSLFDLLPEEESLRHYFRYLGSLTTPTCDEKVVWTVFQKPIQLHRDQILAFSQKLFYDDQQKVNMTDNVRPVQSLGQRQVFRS
The data set is described as above.

Another data set has as its target hCA II (Homo sapiens, UniProt P00918). Described as above.
For data set [2], the system named is IOP of normotensive rabbits. The data set can be described thus: tonometric measurement of IOP after topical administration. It counts as in vivo, New Zealand albino rabbits. The settings on record: topical 2% solution (Fig. 2). How it is done: Tonometric measurement of IOP are performed as follows.
Adult male New Zealand albino rabbits weighing 3-3.5 kg are used in the experiments. Three animals are used for each inhibitor studied. The experimental procedures conform to the Association for Research in Vision and Ophthalmology Resolution on the use of animals. The rabbits are kept in individual cages with food and water provided ad libitum and maintained on a 12 h light/dark cycle in a temperature controlled room, at 22-26 °C. Solutions and suspensions of inhibitors (2 %, by weight, as hydrochlorides, or sodium carboxylates) are made in distilled deionized water. The pH of these solutions is in the range of 5.5 - 7.4.
IOP is measured using a Digilab 30R pneumatonometer (BioRad, Cambridge, MA, USA) as described by Maren et al. (Maren et al., Exp. Eye Res. 55:73-79, 1992; Brechue et al., Invest. Ophthalmol. Vis. Sci. 34:2581-2587,1993). The pressure readings are matched with two-point standard pressure measurements at least twice each day using a Digilab Calibration verifier. All IOP measurements are done by the same investigator with the same tonometer. One drop of 0.2 % oxybuprocaine hydrochloride (novesine, Sandoz) diluted 1:1 with saline is instilled in each eye immediately before each set of pressure measurements. IOP is measured three times at each time interval, and the means reported. IOP is measured first immediately before drug administration, then at 30 min after the instillation of the pharmacological agent, and then each 30 minutes for a period of 4-6 hours. For all IOP experiments drug is administered to only one eye, leaving the contralateral eye as an untreated control. The ocular hypotensive activity is expressed as the average difference in IOP between the treated and control eye, in this way minimizing the diurnal, seasonal and inter-individual variations commonly observed in the rabbit (Id.). All data are expressed as mean ± SE. Ocular hypertension is elicited in the right eye of albino rabbits by the injection of α-chymotrypsin (from Sigma) as described by Sugrue et al. (Sugrue et al., Br. J. Pharmacol. 99:59-64, 1990). The IOP of operated animals is checked after approximately four weeks, and animals with an elevated pressure of 30-36 mm Hg are used at least one month after the injection of α-chymotrypsin.
In vivo IOP lowering experiments are done in normotensive and glaucomatous rabbits, with many of the new compounds reported here, due to their strong CA II and CA IV inhibitory properties, such as B7, B10-B13, B15, B18-B22, B25, B27, B28, B33, B37, and A40. […] Measurements are at 30, 60 and 90 min after administration Table 3.

Where two headings read alike, the source gives them in different places.

Experimental for bCA IV: (§1) Stock solutions of inhibitor (1 mM) are prepared in distilled-deionized water with 10-20% (v/v) DMSO (which is not inhibitory at these concentrations) and dilutions up to 0.01 nM are done thereafter with distilled-deionized water. Inhibitor and enzyme solutions are preincubated together for 10 min at room temperature prior to assay, in order to allow for the formation of the E-I complex.
Experimental for hCA II: as §1

In the case of `CC(=O)Nc1nnc(S(N)(=O)=O)s1` [Acetazolamide, acetazolamide, reference compound], in data set [1] (denuded epithelium), the “kin x 10^3 (hr^-1) No epithelium” value is on record as 7.0 hr^-1. The “kin x 10^3 (hr^-1) Cornea intact” value in data set [1] (intact epithelium) is listed as 0.37 hr^-1.

As to `NS(=O)(=O)c1ccc(CNC(=S)NCc2ccccn2)cc1` [B7], the Ki is 124 nM at hCA I, 74 nM at bCA IV and 43 nM at hCA II.

`NS(=O)(=O)c1ccc(CNC(=S)NCCc2ccccn2)cc1` [B8]: the Ki at hCA I was found to be 120 nM; at bCA IV, 75 nM; at hCA II it was 38 nM.

For `NS(=O)(=O)c1ccc(CNC(=S)NCCc2ccccc2)cc1` [B9], the inhibitory constant (Ki) on hCA I stood at 126 nM; on bCA IV, 76 nM; on hCA II, 39 nM.

Take `NS(=O)(=O)c1ccc(CNC(=S)NCCc2c[nH]cn2)cc1` [B10, 1-(4-Sulfamoylphenylmethyl)-3-[(1H-imidazol)-4-yl-ethyl]-thiourea]: the inhibition constant Ki amounted to 88 nM at hCA I, 52 nM at bCA IV and 30 nM on hCA II.

Turning to `NS(=O)(=O)c1ccc(CNC(=S)NCC(=O)O)cc1` [B14, 1-(4-Sulfamoylphenylmethyl)-3-(carboxymethyl)-thiourea], the inhibitory constant (Ki) on hCA I is 56 nM; on bCA IV, 34 nM; at hCA II it was 17 nM.

For the molecule `CC(NC(=S)NCc1ccc(S(N)(=O)=O)cc1)C(=O)O` (stereo not shown) [B15], the results for the Ki on hCA I, on bCA IV and on hCA II were 48 nM, 29 nM and 10 nM, respectively.

`NS(=O)(=O)c1ccc(CNC(=S)NCCC(=O)O)cc1` [B16]: the inhibition constant Ki at hCA I was 39 nM; on bCA IV, 28 nM; on hCA II, 8 nM.

As to `NS(=O)(=O)c1ccc(CNC(=S)NCCCC(=O)O)cc1` [B17], the Ki was 40 nM at hCA I, 27 nM at bCA IV and 10 nM at hCA II.

For the molecule `CC(O)C(NC(=S)NCc1ccc(S(N)(=O)=O)cc1)C(=O)O` (stereo not shown) [B21], the inhibition constant Ki at hCA I was found to be 24 nM; at bCA IV, 13 nM; on hCA II it was 2 nM.

As to `CSCCC(NC(=S)NCc1ccc(S(N)(=O)=O)cc1)C(=O)O` (stereo not shown) [B23], the Ki at hCA I was found to be 19 nM; on bCA IV it was 10 nM; on hCA II, 3 nM.

As to `CC(C)C(NC(=S)NCc1ccc(S(N)(=O)=O)cc1)C(=O)O` (stereo not shown) [B24], the results for the Ki at hCA I, at bCA IV and at hCA II were 20 nM, 9 nM and 4 nM, respectively.

For the molecule `CC(C)CC(NC(=S)NCc1ccc(S(N)(=O)=O)cc1)C(=O)O` (stereo not shown) [B25], the results for the inhibition constant (Ki) at hCA I, on bCA IV and on hCA II were 17 nM, 11 nM and 3 nM, respectively.

`CCC(C)C(NC(=S)NCc1ccc(S(N)(=O)=O)cc1)C(=O)O` (stereo not shown) [B26, 1-(4-Sulfamoylphenylmethyl)-3-(1-carboxy-2-methyl-butyl)-thiourea]: the Ki was determined as 18 nM on hCA I, 8 nM at bCA IV and 4 nM on hCA II.

Consider `NS(=O)(=O)c1ccc(CNC(=S)NC(CC(=O)O)C(=O)O)cc1` (stereo not shown) [B27], for which the Ki was 27 nM on hCA I, 15 nM on bCA IV and 7 nM on hCA II.

For `NC(=O)CC(NC(=S)NCc1ccc(S(N)(=O)=O)cc1)C(=O)O` (stereo not shown) [B28], the Ki on hCA I stood at 22 nM; on bCA IV it was 9 nM; at hCA II, 5 nM. Further, in data set [2], the “IOP returns to baseline values after ... from administration” value is 5 to 6 h.

In the case of `NS(=O)(=O)c1ccc(CNC(=S)NC(CCC(=O)O)C(=O)O)cc1` (stereo not shown) [B29], the Ki on hCA I is 39 nM; on bCA IV, 23 nM; on hCA II, 10 nM.

With `NC(=O)CCC(NC(=S)NCc1ccc(S(N)(=O)=O)cc1)C(=O)O` (stereo not shown) [B30], the results for the inhibitory constant (Ki) on hCA I, on bCA IV and on hCA II were 36 nM, 21 nM and 9 nM, respectively.

Turning to `NS(=O)(=O)c1ccc(CNC(=S)N2CCCC2C(=O)O)cc1` (stereo not shown) [B31], the Ki on hCA I amounted to 89 nM; on bCA IV, 55 nM; on hCA II, 21 nM.

For the molecule `NS(=O)(=O)c1ccc(CNC(=S)NC(Cc2cnc[nH]2)C(=O)O)cc1` (stereo not shown) [B32], the Ki on hCA I stood at 33 nM; at bCA IV it was 14 nM; on hCA II, 6 nM.

Consider `NS(=O)(=O)c1ccc(CNC(=S)NC(Cc2ccccc2)C(=O)O)cc1` (stereo not shown) [B33, 1-(4-Sulfamoylphenylmethyl)-3-(1-carboxy-2-phenyl-ethyl)-thiourea], for which the inhibition constant Ki at hCA I is 27 nM; on bCA IV it was 14 nM; at hCA II, 5 nM.

In the case of `NS(=O)(=O)c1ccc(CNC(=S)NC(Cc2ccc(O)cc2)C(=O)O)cc1` (stereo not shown) [B34], the inhibitory constant (Ki) turned out to be 24 nM at hCA I, 9 nM at bCA IV and 3 nM on hCA II.

As for `NS(=O)(=O)c1ccc(CNC(=S)NC(Cc2ccc(O)c(O)c2)C(=O)O)cc1` (stereo not shown) [B35], the inhibitory constant (Ki) on hCA I is 30 nM; at bCA IV, 14 nM; at hCA II, 6 nM.

Take `NS(=O)(=O)c1ccc(CNC(=S)NC(Cc2c[nH]c3ccccc23)C(=O)O)cc1` (stereo not shown) [B36]: the Ki at hCA I turned out to be 42 nM; on bCA IV it was 17 nM; on hCA II it was 9 nM.

On to `NCCCCC(NC(=S)NCc1ccc(S(N)(=O)=O)cc1)C(=O)O` (stereo not shown) [B37], for which the inhibition constant Ki on hCA I was found to be 73 nM; at bCA IV it was 34 nM; on hCA II, 10 nM.

Turning to `N=C(N)NCCCC(NC(=S)NCc1ccc(S(N)(=O)=O)cc1)C(=O)O` (stereo not shown) [B38], the inhibition constant (Ki) at hCA I was 103 nM; on bCA IV it was 56 nM; on hCA II, 18 nM.

With `NS(=O)(=O)c1ccc(CNC(=S)NCC(=O)NCC(=O)O)cc1` [B39], the Ki stood at 50 nM at hCA I, 26 nM at bCA IV and 13 nM on hCA II.

As for `NS(=O)(=O)c1ccc(CNC(=S)NC(Cc2cnc[nH]2)C(=O)NCC(=O)O)cc1` (stereo not shown) [B41], the inhibition constant (Ki) at hCA I was 12 nM; on bCA IV, 5 nM; at hCA II, 1 nM.

With `NS(=O)(=O)c1ccc(CNC(=S)NC(Cc2cnc[nH]2)C(=O)NC(Cc2ccccc2)C(=O)O)cc1` (stereo not shown) [B42], the inhibitory constant (Ki) at hCA I worked out at 19 nM; on bCA IV, 7 nM; on hCA II, 2 nM.

As for `CC(NC(=S)NCc1ccc(S(N)(=O)=O)cc1)C(=O)NC(Cc1ccccc1)C(=O)O` (stereo not shown) [B43], the values for the inhibition constant Ki at hCA I, on bCA IV and at hCA II were 21 nM, 10 nM and 3 nM, respectively.

Take `CC(C)CC(NC(=S)NCc1ccc(S(N)(=O)=O)cc1)C(=O)NCC(=O)O` (stereo not shown) [B44]: the inhibitory constant (Ki) on hCA I was 20 nM; on bCA IV, 11 nM; on hCA II, 4 nM.

With `NS(=O)(=O)c1ccc(CNC(=S)NC(CC(=O)O)C(=O)NC(CC(=O)O)C(=O)O)cc1` (stereo not shown) [B45], the Ki on hCA I worked out at 37 nM; on bCA IV it was 25 nM; on hCA II, 12 nM.

For the molecule `NS(=O)(=O)c1ccc(CNC(=S)N2CCCC2C(=O)NCC(=O)NCC(=O)O)cc1` (stereo not shown) [B46], the inhibitory constant (Ki) at hCA I came out at 22 nM; on bCA IV, 8 nM; at hCA II, 3 nM.

As for `NS(=O)(=O)c1ccc(CNC(=S)NC(CC(=O)O)C(=O)NC(CC(=O)O)C(=O)NC(CC(=O)O)C(=O)NC(CC(=O)O)C(=O)O)cc1` (stereo not shown) [B47], the Ki on hCA I came out at 51 nM; on bCA IV, 24 nM; on hCA II it was 9 nM.

For the molecule `NS(=O)(=O)c1ccc(CN=C=S)cc1` [B, 4-isothiocyanatomethyl-benzenesulfonamide], the inhibition constant (Ki) came to 4300 nM on hCA I, 270 nM on bCA IV and 162 nM on hCA II.

As for `NS(=O)(=O)c1cc(Cl)c(Cl)c(S(N)(=O)=O)c1` [Dichlorophenamide 6, dichlorophenamide, reference compound], the Ki on bCA IV (read-out: KI (nM) bCA IV, From bovine lung microsomes, by the esterase method, pH 7.40, 25°C) was 380 nM.
